# Experimental data from patent US8772302B2, “GPR 119 agonists” (Cadila Healthcare Limited, priority 2009, dated 2014).
# Test system: Sprague Dawley rats
# Assay: Feed intake in Sprague Dawley rats
# Format: in vivo, rat
# Details: cumulative feed intake vs vehicle
# Source text: In Vivo Efficacy Studies: Feed Intake in Sprague Dawley Rats:
# Sprague Dawley rats of 6-8 week age are used for this experiment they are kept for acclimatization in reversed light/dark cycle for 15 days. Animals will have free access to a standard chow diet and water during acclimatization period. After 15 days reversed light/dark cycle acclimatization animals are trained for fasting induced feed intake for 5 days till they show consistent feed intake. Grouping was done based on the monitored feed intake during the training days. On treatment day each group of animals are dosed with test compound or vehicle by appropriate routes of administration (orally or intraperitoneally). Exactly 30 min. after treatment, measured amount of standard chow diet is provided and recorded as O-min feed offered. Then subsequently 2, 4, 6 and 24 hour after O-min, feed intake is measured and the cumulative feed intakes are calculated. The change in cumulative feed intake as compared to vehicle treated control at each time point is calculated for test compound.
SMILES,"% reduction in food in take, 2 hour (intraperitoneal, 25 mg/kg)","% reduction in food in take, 4 hour (intraperitoneal, 25 mg/kg)","% reduction in food in take, 6 hour (intraperitoneal, 25 mg/kg)","% reduction in food in take, 24 hour (intraperitoneal, 25 mg/kg)","% reduction in food in take, 2 hour (oral, 50 mg/kg)","% reduction in food in take, 4 hour (oral, 50 mg/kg)","% reduction in food in take, 6 hour (oral, 50 mg/kg)","% reduction in food in take, 24 hour (oral, 50 mg/kg)"
"Cc1c(Oc2ccc([C@H]3CO[S@@](=O)OC3)cc2)ncnc1OC1CCN(c2ncccn2)CC1 [Example 5, cis-5-(4-((5-methyl-6-((1-(pyrimidin-2-yl)piperidin-4-yl)oxy)pyrimidin-4-yl)oxy)phenyl)-1,3,2-dioxathiane 2-oxide]",35%,17%,21%,8%,–,–,–,–
"Cc1c(Oc2ccc(C[C@H]3CO[S@@](=O)OC3)cc2)ncnc1OC1CCN(c2nc(C(C)C)no2)CC1 [Example 29, cis-5-(4-((6-((1-(3-isopropyl-1,2,4-oxadiazol-5-yl)piperidin-4-yl)oxy)-5-methylpyrimidin-4-yl)oxy)benzyl)-1,3,2-dioxathiane 2-oxide]",50%,24%,5%,4%,–,–,–,–
"Cc1c(Oc2ccc(C[C@H]3CO[S@](=O)OC3)cc2)ncnc1OC1CCN(c2nc(C(C)C)no2)CC1 [Example 30, trans-5-(4-((6-((1-(3-isopropyl-1,2,4-oxadiazol-5-yl)piperidin-4-yl)oxy)-5-methylpyrimidin-4-yl)oxy)benzyl)-1,3,2-dioxathiane 2-oxide]",39%,31%,5%,9%,–,–,–,–
"CCc1cnc(N2CCC(Oc3ncnc(Oc4ccc(C[C@H]5CO[S@@](=O)OC5)cc4)c3C)CC2)nc1 [Example 31, cis-5-(4-((6-((1-(5-ethylpyrimidin-2-yl)piperidin-4-yl)oxy)-5-methylpyrimidin-4-yl)oxy)benzyl)-1,3,2-dioxathiane 2-oxide]",28%,34%,28%,9%,–,–,–,–
"Cc1c(Oc2ccc([C@H]3CO[S@@](=O)OC3)cc2)ncnc1OC1CCN(C(=O)Nc2ccc(Cl)cc2Cl)CC1 [Example 45, cis-N-(2,4-dichlorophenyl)-4-((5-methyl-6-(4-(2-oxido-1,3,2-dioxathian-5-yl)phenoxy)pyrimidin-4-yl)oxy)piperidine-1-carboxamide]",–,–,–,–,28%,28%,16%,7%
"Cc1c(Oc2ccc([C@H]3CO[S@@](=O)OC3)cc2)ncnc1OC1CCN(C(=O)OC(C)C)CC1 [Example 47, cis-isopropyl 4-((5-methyl-6-(4-(2-oxido-1,3,2-dioxathian-5-yl)phenoxy)pyrimidin-4-yl)oxy)piperidine-1-carboxylate]",–,–,–,–,23%,16%,3%,3%
"Cc1c(Oc2ccc(C3COS(=O)OC3)cc2)ncnc1OC1CCN(C(=O)OC(C)C)CC1 (stereo not drawn) [Example 48, trans-isopropyl 4-((5-methyl-6-(4-(2-oxido-1,3,2-dioxathian-5-yl)phenoxy)pyrimidin-4-yl)oxy)piperidine-1-carboxylate]",–,–,–,–,32%,17%,17%,10%
"CC(C)(C)OC(=O)N1CCC(c2nc(COc3ccc(CC4COS(=O)OC4)cc3)cs2)CC1 (stereo not drawn) [Example 55, cis-tert-butyl 4-(4-((4-((2-oxido-1,3,2-dioxathian-5-yl)methyl)phenoxy)methyl)thiazol-2-yl)piperidine-1-carboxylate]",–,–,–,–,33%,5.3%,–,–
"CCc1cnc(N2CCC(Oc3ccc(C[C@H]4CO[S@@](=O)OC4)cc3)CC2)nc1 [Example 59, cis-5-(4-((1-(5-ethylpyrimidin-2-yl)piperidin-4-yl)oxy)benzyl)-1,3,2-dioxathiane 2-oxide]",–,–,–,–,23%,21%,15%,11%
